Assay results as given in patent US20230416237A1, “AMIDE COMPOUND, PHARMACEUTICAL COMPOSITION AND USE THEREOF” (SHENZHEN BO LI JIAN MEDICINE CO., LTD., priority 2020, published 2023).
pIC50: −log10 of the molar value.

Columns and labels:
JAK2 [1] = target: T1, JAK2 (Homo sapiens (Human), UniProt O60674); settings: selective JAK1 inhibitors, literature; cited from earlier work
Target sequence in this assay (O60674 whole entry, species assumed): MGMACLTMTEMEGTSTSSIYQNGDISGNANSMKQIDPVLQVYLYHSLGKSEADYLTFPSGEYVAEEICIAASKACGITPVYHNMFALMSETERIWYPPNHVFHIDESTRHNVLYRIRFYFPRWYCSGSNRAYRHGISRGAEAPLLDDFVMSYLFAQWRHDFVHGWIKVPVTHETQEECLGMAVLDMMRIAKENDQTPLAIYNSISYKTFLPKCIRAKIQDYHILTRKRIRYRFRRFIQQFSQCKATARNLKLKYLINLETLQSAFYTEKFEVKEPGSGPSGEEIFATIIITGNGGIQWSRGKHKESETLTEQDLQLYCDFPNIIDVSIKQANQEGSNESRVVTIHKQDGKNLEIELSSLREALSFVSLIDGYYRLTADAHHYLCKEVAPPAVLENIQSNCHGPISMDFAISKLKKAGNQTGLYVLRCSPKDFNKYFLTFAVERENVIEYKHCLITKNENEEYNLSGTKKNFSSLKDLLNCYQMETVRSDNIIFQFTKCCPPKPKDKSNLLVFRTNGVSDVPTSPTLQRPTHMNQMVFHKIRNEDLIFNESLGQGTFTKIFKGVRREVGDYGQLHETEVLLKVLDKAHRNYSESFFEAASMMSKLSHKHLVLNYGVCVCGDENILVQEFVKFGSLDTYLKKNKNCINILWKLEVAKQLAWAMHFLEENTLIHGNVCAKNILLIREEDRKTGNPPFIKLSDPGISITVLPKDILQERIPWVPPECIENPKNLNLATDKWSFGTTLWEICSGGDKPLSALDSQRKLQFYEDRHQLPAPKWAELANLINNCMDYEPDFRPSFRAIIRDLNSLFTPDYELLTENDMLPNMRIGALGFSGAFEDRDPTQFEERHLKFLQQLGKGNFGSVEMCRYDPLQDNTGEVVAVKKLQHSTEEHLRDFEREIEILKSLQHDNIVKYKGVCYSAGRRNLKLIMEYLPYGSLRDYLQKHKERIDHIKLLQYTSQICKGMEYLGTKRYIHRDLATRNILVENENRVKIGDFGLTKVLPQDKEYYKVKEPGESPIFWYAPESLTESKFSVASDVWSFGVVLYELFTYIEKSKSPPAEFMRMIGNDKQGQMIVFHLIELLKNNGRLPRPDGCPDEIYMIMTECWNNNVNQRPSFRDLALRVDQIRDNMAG

JAK1 = JAK1 (Homo sapiens (Human), UniProt P23458); assay: JAK1 inhibitory activity, mobility shift assay, 1 mM ATP; assay type: biochemical; settings: for IC50: 1 mM ATP
Chain of JAK1 (P23458 850-1154): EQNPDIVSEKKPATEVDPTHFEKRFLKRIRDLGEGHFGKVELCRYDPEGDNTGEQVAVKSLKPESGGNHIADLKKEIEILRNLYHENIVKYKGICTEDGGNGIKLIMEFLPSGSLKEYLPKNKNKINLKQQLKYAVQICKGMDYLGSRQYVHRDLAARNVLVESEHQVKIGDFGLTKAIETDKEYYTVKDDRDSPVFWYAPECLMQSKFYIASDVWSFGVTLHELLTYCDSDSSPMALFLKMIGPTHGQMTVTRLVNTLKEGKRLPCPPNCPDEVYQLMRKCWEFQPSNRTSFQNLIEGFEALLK
Method: (§1) The JAK1 inhibitory activity and the JAK2 inhibitory activity of the amide compounds provided in the above examples were tested by the method below.
(§2) Specific steps are described below. • 1. A 1× Kinase buffer was formulated. • 2. Concentration gradients of the compound were formulated: a test compound with an initial concentration of 10000 nM (JAK1) or 30000 nM (JAK2) was diluted in a 384-well plate to a 100% DMSO solution with a 100-fold final concentration, wherein the compound was diluted by a fold of 3 to 10 concentrations. 250 nL of the compound with the 100-fold final concentration was transferred with a dispenser Echo 550 to the target plate. • 3. A kinase solution with a 2.5-fold final concentration was prepared with the 1× Kinase buffer. • 4. […] The plate was centrifuged at 1000 rpm for 30 s, shaken and uniformly mixed, and incubated for 10 min at room temperature. • 6. A mixed solution of ATP (the final concentration of ATP=1 mM) and Kinase substrate with a 5/3-fold final concentration was formulated with the 1× Kinase buffer. • 7. 15 μL of the mixed solution of ATP and the substrate with the 5/3-fold final concentration was added to initiate the reaction. • 8. The 384-well plate was centrifuged at 1000 rpm for 30 s, shaken and uniformly mixed, and incubated for respective times at room temperature. • 9. The kinase reaction was stopped by adding 30 μL of a detection termination solution, and the plate was centrifuged at 1000 rpm for 30 s and shaken and uniformly mixed. • 10. The conversion rate was read with Caliper EZ Reader and the half maximal inhibitory concentration (IC50) was calculated.

JAK2 [2] = target: T1, JAK2; assay: JAK2 inhibitory activity, mobility shift assay, 1 mM ATP; assay type: biochemical
Method: as §1, §2
Target sequence in this assay (O60674 826-1132): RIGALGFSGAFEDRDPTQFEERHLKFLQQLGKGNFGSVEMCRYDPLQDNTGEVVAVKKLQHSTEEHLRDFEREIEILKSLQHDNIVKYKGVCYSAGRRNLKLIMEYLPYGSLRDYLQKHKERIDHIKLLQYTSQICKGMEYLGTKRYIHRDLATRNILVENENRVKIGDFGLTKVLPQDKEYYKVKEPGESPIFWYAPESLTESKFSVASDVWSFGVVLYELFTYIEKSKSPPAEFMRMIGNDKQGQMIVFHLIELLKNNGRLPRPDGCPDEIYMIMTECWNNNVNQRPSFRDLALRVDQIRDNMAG

[3] = system: IFNα-induced pSTAT3 (JAK1/TYK2 signaling pathway); assay: Mouse whole blood assay, inhibition of IFNα-induced pSTAT3; assay type: cell-based; settings: C57BL/6J mouse blood, IFNα 20000 IU/mL
Method: Cytokine IFNα can induce STAT3 phosphorylation (pSTAT3) through the JAK1/TYK2 signaling pathway. […] IFNα used was Recombinant mouse IFNα (Miltenyi #130-093-131), the pSTAT3 antibody used was Alexa Fluor 488 anti-STAT3 Phospho (Tyr705) Antibody (Biolegend #651106), and the CD3 antibody used was Brilliant Violet 421 anti-mouse CD3 Antibody (Biolegend #100228). The cytokine dilution buffer was PBS+0.1% BSA, which was filtered and stored at […]. The FACS buffer was PBS+0.2% BSA+1 mM EDTA. Specific steps are described below. • 1. C57BL/6J mouse blood was added to a 96-well plate, with 90 μL per well. • 2. Each well was added with 5 μL of the compound ([…]), uniformly mixed and incubated at 37° C. for 60 min in an incubator. • 3. Each well was added with 5 μL of 20×IFNα (with a working concentration of 20000 IU/mL) as the stimulation factor, uniformly mixed and incubated at 37° C. for 30 min. • 4. Blood was transferred to a 96-deep-well plate, and each well was added with 1 mL of Lyse fix buffer (1×), uniformly mixed and incubated at 37° C. for 10 min. • 5. The plate was centrifuged at 600 g for 5 min and the supernatant was discarded. 1 mL of PBS was added to each well and centrifuged at 600 g for 5 min and the supernatant was discarded, which were repeated twice. Each well was added with 100 μL of the anti-mCD3 antibody (diluted by a fold of 80 with the cytokine dilution buffer), uniformly mixed and incubated at 4° C. for 30 min. • 6. 1 mL of PBS was added to each well and centrifuged at 600 g for 5 min and the supernatant was discarded, which were repeated twice. Each well was added with 1000 μL of Perm III, uniformly mixed and incubated at 4° C. for 30 min. • 7. The plate was centrifuged at 600 g for 5 min and the supernatant was discarded. 1 mL of PBS was added to each well and centrifuged at 600 g for 5 min and the supernatant was discarded, which were repeated twice. • 8. Each well was added with 100 μL of the anti-pSTAT3 antibody (diluted by a fold of 50 with the FACS buffer), uniformly mixed and incubated at 25° C. for 40 min. • 9. 1 mL of the FACS buffer was added to each well and centrifuged at 600 g for 5 min and the supernatant was discarded. 200 μL of the FACS buffer was added to each well and resuspended. All samples were transferred to a 96-well tip-bottom plate and uploaded. • 10. Data were collected and analyzed.

Compound	selectivity for JAK2 in kinase assays (JAK2 [1])	IC50 (JAK1; Table 7) [nM]	IC50 (JAK1; Table 8) [nM]	JAK2/JAK1 Multiple selectivity (JAK1; ratio of JAK2 IC50 to JAK1 IC50, 1 mM ATP)	IC50 (JAK2 [2]; Table 7) [nM]	IC50 (JAK2 [2]; Table 8) [nM]	pIC50 [3]
CC[C@@H]1CN(C(=O)NCC(F)(F)F)C[C@@H]1c1cnc2cnc3[nH]ccc3n12 [upadacitinib]	less than three	–	–	–	–	–	–
COc1nn(C)cc1Nc1ncc(C)c(-c2c[nH]c3c(NC(=O)[C@H]4CC(F)(F)CN4[C@@H]4CCN(C)C4)cccc23)n1 [Example 32, (2R,3′R)-4,4-difluoro-N-(3-(2-((3-methoxy-1-methyl-1H-pyrazol-4-yl)amino)-5-methylpyrimidin-4-yl)-1H-indol-7-yl)-1′-methyl-[1,3′-bipyrrolidine]-2-carboxamide]	–	26	26	149	3880	3880	6.92
O=C(Nc1nc2cccc(-c3ccc(CN4CCS(=O)(=O)CC4)cc3)n2n1)C1CC1 [filgotinib]	less than three	–	–	–	–	–	–
